According to patent US20240148821A1, “PHARMACEUTICAL USE OF CYCLIC PEPTIDE COMPOUND” (CHUGAI SEIYAKU KABUSHIKI KAISHA, priority 2021, published 2024):
Numbered stars: 1 amine (or outer) side, 2 acyl side, 3 side chain; on linkers, the order of the positions; unused ones are H or OH. Bridge positions count the residues as written; N and C are the ends. Square brackets hold non-standard residues; d marks the D form. Peptide text beside a SMILES is read from it. * marks the point of attachment. hPhe(3-Cl-4-CF3) = N[C@@H](CCc1ccc(C(F)(F)F)c(Cl)c1)C(=O)O; hPhe(3-F,4-CF3) = N[C@@H](CCc1ccc(C(F)(F)F)c(F)c1)C(=O)O; 3Oxa8azabicyclo(3.2.1)octane = C1CC2COCC1N2*; NMePhe(4-Cl) = CN[C@@H](Cc1ccc(Cl)cc1)C(=O)O; NMedβ3hAla = C[C@H](CC(=O)[*:2])N(C)[*:1]; NMeGly(cPent) = CN[C@H](C(=O)O)C1CCCC1; Phe(3-I) = N[C@@H](Cc1cccc(I)c1)C(=O)O; NMeCha = CN[C@@H](CC1CCCCC1)C(=O)O; NMeChg = CN[C@H](C(=O)O)C1CCCCC1; dNMeF = CN[C@H](Cc1ccccc1)C(=O)O; NMeβAla = CN(CCC(=O)[*:2])[*:1]; NMeD = CN[C@@H](CC(=O)O)C(=O)O; NMeL = CN[C@@H](CC(C)C)C(=O)O; NMehSer = CN[C@@H](CCO)C(=O)O; Pip = O=C(O)[C@@H]1CCCCN1; NMeA = CN[C@@H](C)C(=O)O; NMeAib = CNC(C)(C)C(=O)O; Nle = CCCC[C@H](N)C(=O)O; Piperidide = C1CCN(*)CC1; Ac5c = NC1(C(=O)O)CCCC1; Aze = O=C(O)[C@@H]1CCN1; Thp = NC1(C(=O)O)CCOCC1; Sar = CNCC(=O)O

Test system: Human pancreatic cancer cell line AsPC-1 (G12D mutation Kras)
Experiment: AsPC-1 cell growth inhibition (AsPC-1 CGI)
Type: cell-based
Details: read-out: AsPC-1 cell growth inhibition, 50% growth inhibitory concentration (IC50 value); 96 hours, CellTiter-Glo, values classified in ranges
Procedure: Test compounds were serially dilated with dimethyl sulfoxide, and 200 nL was then dispensed to a U-bottom 96-well plate using Labcyte Echo. […] The cell suspension was dispensed to a. plate containing a test compound at 100 μL per well and incubated at 37° C. in a 5% carbon dioxide gas incubator. 96 hours later, 80 μL of CellTiter-Glo (Promega) was added to each well and fluorescence was measured.

Compound | IC50
CC[C@H](C)[C@@H]1NC(=O)[C@H](CC(C)C)N(C)C(=O)C[C@@H](C(=O)N2CCCCC2)N(C)C(=O)[C@H](C2CCCCC2)N(C)C(=O)C2(CCCC2)NC(=O)[C@@H]2CCCCN2C(=O)[C@H](CCc2ccc(C(F)(F)F)c(Cl)c2)NC(=O)CN(C)C(=O)[C@H](CC2CCCCC2)N(C)C(=O)CN(C)C(=O)CN(C)C1=O [Compound 728] ([NMeL]I[Sar][Sar][NMeCha][Sar][hPhe(3-Cl-4-CF3)][Pip][Ac5c][NMeChg][NMeD]-Piperidide; lactam N-11) | > 0.5 µM
CC[C@H](C)[C@@H]1NC(=O)[C@H](CC(C)C)N(C)C(=O)C[C@@H](C(=O)N2C3CCC2COC3)N(C)C(=O)[C@H](C2CCCC2)N(C)C(=O)C2(CCCC2)NC(=O)[C@@H]2CCCN2C(=O)[C@H](CCc2ccc(C(F)(F)F)c(F)c2)NC(=O)CN(C)C(=O)[C@H](CC2CCCCC2)N(C)C(=O)[C@@H]2CCN2C(=O)[C@H](C)N(C)C1=O [Compound 734] ([NMeL]I[NMeA][Aze][NMeCha][Sar][hPhe(3-F,4-CF3)]P[Ac5c][NMeGly(cPent)][NMeD]-{3Oxa8azabicyclo(3.2.1)octane}; lactam N-11) | ≤ 0.02 µM
CC[C@H](C)[C@@H]1NC(=O)[C@H](CC(C)C)N(C)C(=O)C[C@@H](C(=O)N(C)C)N(C)C(=O)[C@H](C2CCCC2)N(C)C(=O)[C@H](C)NC(=O)[C@@H](C)NC(=O)[C@H](CCc2ccc(C(F)(F)F)c(Cl)c2)NC(=O)CN(C)C(=O)[C@H](CC2CCCCC2)N(C)C(=O)[C@@H]2CCN2C(=O)[C@H](C)N(C)C1=O [Compound 736] ([NMeL]I[NMeA][Aze][NMeCha][Sar][hPhe(3-Cl-4-CF3)][dA]A[NMeGly(cPent)][NMeD]-NMe2; lactam N-11) | > 0.5 µM
CC[C@H](C)[C@@H]1NC(=O)[C@H](CC(C)C)N(C)C(=O)C[C@@H](C)N(C)C(=O)[C@H](CC(C)C)N(C)C(=O)C2(CCOCC2)NC(=O)[C@@H]2CCCN2C(=O)[C@H](CCc2ccc(C(F)(F)F)c(Cl)c2)NC(=O)CN(C)C(=O)[C@H](CC2CCCCC2)N(C)C(=O)CN(C)C(=O)CN(C)C1=O [Compound 742] (cyclo(I[Sar][Sar][NMeCha][Sar][hPhe(3-Cl-4-CF3)]P[Thp][NMeL][NMedβ3hAla][NMeL])) | > 0.5 µM
CC[C@H](C)[C@@H]1NC(=O)[C@H](CC(C)C)N(C)C(=O)C[C@@H](C(=O)N2CCCCC2)N(C)C(=O)[C@H](CCOC)N(C)C(=O)C2(CCCC2)NC(=O)[C@@H]2CCCN2C(=O)[C@H](CCc2ccc(C(F)(F)F)c(Cl)c2)NC(=O)CN(C)C(=O)[C@H](CC2CCCCC2)N(C)C(=O)CN(C)C(=O)CN(C)C1=O [Compound 744] ([NMeL]I[Sar][Sar][NMeCha][Sar][hPhe(3-Cl-4-CF3)]P[Ac5c][NMehSer](Me)[NMeD]-Piperidide; lactam N-11) | > 0.5 µM
CC[C@H](C)[C@@H]1NC(=O)CCN(C)C(=O)[C@@H](Cc2ccccc2)N(C)C(=O)[C@H](C2CCCC2)N(C)C(=O)C2(CCCC2)NC(=O)[C@@H]2CCCN2C(=O)[C@H](CCc2ccc(C(F)(F)F)c(Cl)c2)NC(=O)CN(C)C(=O)[C@H](CC2CCCCC2)N(C)C(=O)CN(C)C(=O)CN(C)C1=O [Compound 753] (cyclo([Ac5c][NMeGly(cPent)][dNMeF][NMeβAla]I[Sar][Sar][NMeCha][Sar][hPhe(3-Cl-4-CF3)]P)) | > 0.5 µM
CCCC[C@@H]1NC(=O)C(C)(C)N(C)C(=O)[C@H](CCCC)NC(=O)[C@H](Cc2cccc(I)c2)NC(=O)CN(C)C(=O)[C@H](Cc2ccc(Cl)cc2)N(C)C(=O)CN(C)C(=O)CN(C)C(=O)[C@H]([C@@H](C)CC)NC(=O)[C@H](CC(C)C)N(C)C(=O)C[C@@H](C(=O)N2CCCCC2)N(C)C1=O [Compound 765] ([NMeL]I[Sar][Sar][NMePhe(4-Cl)][Sar][Phe(3-I)][Nle][NMeAib][Nle][NMeD]-Piperidide; lactam N-11) | > 0.5 µM
